In patent US20030138433A1, “Autologous adoptive immunotherapy with antigen-specific primed T cells or B cells to promote antigen-specific immune responses with an appropriate cytokine bias” (priority 1999, published 2003):

Legend:
[1] = system: Total splenic B cells from C3H, AKR, C3H.lpr and MRL.gld mice; assay: DNA content of total splenic B cells (saponin/propidium iodide flow cytometry); type: cell-based; conditions: B cells from lpr animals compared with normal animals
Method: Total splenic B cells were isolated from C3H, AKR, C3H.lpr, and MRL.gld mice. The cells were cultured overnight, harvested, permeabilized in saponin, stained with propidium iodide (PI) which intercalates into DNA, and analyzed by flow cytometry. Because the majority of cells in these preparations are either resting or “growth arrested,” the predominant peak in the untreated samples is the G0/G1 peak (2N DNA).

[2] = system: Splenic B cells from AKR mice (resting, in vitro primed, in vivo activated); assay: Apoptotic death of splenic B cells scored by nucleosome-sized DNA fragments (densitometry); type: cell-based; conditions: 10 μM, primed and activated B cells
Method: Splenic B cells from AKR mice were separated on a Percoll density gradient and two fractions were collected: small, high-density, resting B cells were obtained from the 1.079<ρ<1.085 g/ml interface and large in vivo activated B cells were collected at the BSS<ρ<1.066 g/ml interface. In vitro primed B cells were obtained by treating resting B cells with 16U recombinant IL-4 and by incubating them overnight on anti-Ig-coated plates. […] Apoptotic death was scored by quantitating the formation of nucleosome-sized DNA fragments by densitometry.

[3] = system: L1210 cells; assay: Methotrexate-induced cell death (flow cytometry, ethidium bromide, DNA fragments); type: cell-based, mouse (BALB/c-derived)
Method: (§1) L1210 and L1210/DDP cells were treated overnight with 5×10^−7 M methotrexate. […] The forward scatter low populations took up ethidium bromide differentially. The L1210 cells took up a moderate amount of ethidium bromide whereas the L1210/DDP cells took up large amounts. […] This latter phenotype—loss in forward scatter and membrane permeability with no “DNA laddering”—is the hall mark of oncosis.
(§2) L1210 and L1210/DDP cells were treated with a dose of methotrexate that produced moderate amounts of cell death. (Even though L1210/DDP is “methotrexate resistant”, the drug does induce cell death in the cultures; the surviving cells which grow out of the culture are responsible for the lines “drug resistant” appellation).

[4] = system: L1210/DDP cells; assay: as above; type: cell-based, mouse (BALB/c-derived)
Method: as §1, §2

[5] = system: transgenic mice expressing a hen egg lysozyme (HEL)-specific T cell receptor (3A9) crossed with MHC class II transgenic mice; assay: In vivo antigen pulse of 3A9 x MHC class II transgenic crosses, spleen cell analysis; conditions: 100 μg, six days after injection
Method: Mouse spleens were removed after sacrifice and placed into 4 ml PBS, 0.1% BSA in a petri dish. A single cell suspension was prepared using the frosted ends of two microscope slides. Cells were then transferred into a 15 ml tube. The cell suspension was underlayed with 2 ml Ficoll-paque and then centrifuged for 15 min. at 1,000×g. Lymphocytes at the interface were collected and washed 3× with ice-cold 15 ml PBS, 0.1% BSA. Cells were counted and resuspended to 1.6×10^7 viable cells per ml concentration, in RPMI 1640 25 mM HEPES, 50 μM 2-ME, 10% FBS, 1× L-glutamine, 1× sodium pyruvate, 1× nonessential amino acids.
The FACScalibur, flow cytometer was calibrated using Becton-Dickinson calibration beads prior to each four color analysis run. Cells also were analyzed on a FACScan™ with CellQuest software (Becton Dickinson, San Jose, Calif.).
Two different crosses between the mice carrying the different transgenes were generated. Transgenic mice expressing a hen egg lysozyme (HEL)-specific T cell receptor (3A9) were crossed with: (i) the transgenic mice expressing wild type MIIC class II on a null MHC class II background, and (ii) the transgenic mice expressing hybrid MHC class II-MCH class I molecules on a null MHC class II background.
Mice, 4-8 weeks old, generated from the above-identified crosses were pulsed in vivo with an injection of 100 μg total of antigen (HEL). Six days after injenction, the cells from splenes were harvested, as described above, and analyzed. […] Additionally, the “tail” of MHC class II is not necessary for the proper loading and presentation of antigen.

[6] = 3A9×wild type MHC class II on null background

CC[C@H]1CN2CCc3cc(OC)c(OC)cc3[C@@H]2C[C@@H]1C[C@H]1NCCc2cc(OC)c(OC)cc21 [emetine]
DNA fragmentation, lpr vs normal B cells [1]: equally capable of fragmenting DNA

CC(C)NCC(O)c1ccc(O)c(O)c1 (stereo not drawn) [isoproterenol]
induction of apoptosis [2]: induces apoptosis in all three populations

CN(Cc1cnc2nc(N)nc(N)c2n1)c1ccc(C(=O)N[C@@H](CCC(=O)O)C(=O)O)cc1 [methotrexate]
mode of cell death ([3]; L1210): die by apoptosis
DNA fragments ([3]; L1210, 5×10^−7 M overnight): produced a ladder of nucleosome sized fragments indicative of apoptosis
mode of cell death [4]: die by oncosis
DNA fragments ([4]; 5×10^−7 M overnight): did not

hen egg lysozyme [HEL]
T cells in spleen ([5]; 3A9×hybrid MHC class II-MHC class I on null background): a CD4^+ T cell subset missing
MHC class II bearing B cells in spleen [5, 6]: no MHC class II bearing B cells
T cells in spleen [5, 6]: normal T cell numbers
